Data reported in publication PMC6416464 (Drug Metabolism Letters, 2018).

Tests used:
[1] = Metabolic stability, incubation with human liver microsomes; settings: 1 µM test compound, 0.5 mg/mL protein
[2] = molecular target: rCYP2C9 (Homo sapiens, UniProt P11712); experiment: Metabolic stability / reaction phenotyping with recombinant human CYP2C9; settings: for % Metabolized at 30 min Incubation with Human Liver Fractions/Enzymes rCYP2C9: 1 µM test compound, 100 pmol/mL
[3] = Metabolic stability, incubation with human liver cytosol; type: in vitro ADME; settings: 1 µM test compound, 1 mg/mL protein
[4] = molecular target: T1, CYP3A4 (Homo sapiens, UniProt P08684); experiment: in vitro; settings: microsomes, pH 7.4, % Inhibition of Control Activity CYP3A4 (substrate, testosterone)
T1 sequence (P08684 2-503): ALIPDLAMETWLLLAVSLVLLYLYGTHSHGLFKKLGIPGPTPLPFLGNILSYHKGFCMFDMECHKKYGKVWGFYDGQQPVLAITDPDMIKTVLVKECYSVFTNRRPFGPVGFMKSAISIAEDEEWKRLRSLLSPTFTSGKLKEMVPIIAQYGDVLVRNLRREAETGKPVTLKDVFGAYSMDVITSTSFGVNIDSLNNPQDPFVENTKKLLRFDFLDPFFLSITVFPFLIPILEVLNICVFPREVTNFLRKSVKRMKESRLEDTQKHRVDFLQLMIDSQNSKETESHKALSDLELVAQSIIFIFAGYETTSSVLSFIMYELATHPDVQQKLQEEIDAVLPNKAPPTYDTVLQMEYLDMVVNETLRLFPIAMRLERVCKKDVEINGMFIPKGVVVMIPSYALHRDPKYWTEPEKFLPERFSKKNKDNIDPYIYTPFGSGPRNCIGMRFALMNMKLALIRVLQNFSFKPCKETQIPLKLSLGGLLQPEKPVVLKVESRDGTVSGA

[5] = molecular target: T1, CYP3A4; experiment: in vitro; settings: microsomes, pH 7.4
[6] = molecular target: T2, CYP2C8 (Homo sapiens, UniProt P10632); experiment: CYP inhibition in human liver microsomes, CYP2C8; settings: human, human liver microsomes, pH 7.4, probe paclitaxel
T2 sequence (P10632 1-490): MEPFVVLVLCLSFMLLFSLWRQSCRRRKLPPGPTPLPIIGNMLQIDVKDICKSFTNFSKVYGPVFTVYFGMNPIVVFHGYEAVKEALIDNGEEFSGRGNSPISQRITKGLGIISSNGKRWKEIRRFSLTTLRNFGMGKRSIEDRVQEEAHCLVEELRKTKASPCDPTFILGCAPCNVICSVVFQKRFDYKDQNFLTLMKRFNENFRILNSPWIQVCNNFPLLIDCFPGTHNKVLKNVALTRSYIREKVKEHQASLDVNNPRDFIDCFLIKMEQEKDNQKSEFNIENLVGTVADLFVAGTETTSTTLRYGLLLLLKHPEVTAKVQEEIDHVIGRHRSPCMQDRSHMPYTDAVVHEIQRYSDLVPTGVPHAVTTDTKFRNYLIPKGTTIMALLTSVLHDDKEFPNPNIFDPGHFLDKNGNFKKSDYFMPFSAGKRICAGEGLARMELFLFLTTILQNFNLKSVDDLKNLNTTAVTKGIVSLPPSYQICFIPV

[7] = molecular target: T3, rCYP2C8 (Homo sapiens, UniProt P10632); experiment: Metabolic stability / reaction phenotyping with recombinant human CYP2C8; settings: for % Metabolized at 30 min Incubation with Human Liver Fractions/Enzymes rCYP2C8: 1 µM test compound, 100 pmol/mL
T3 sequence (P10632 1-490): T2 sequence (P10632 1-490)

[8] = molecular target: rCYP3A4 (Homo sapiens, UniProt P08684); settings: 1 µM test compound; 100 pmol/mL; 30 min
Sequence of rCYP3A4 (P08684 whole entry): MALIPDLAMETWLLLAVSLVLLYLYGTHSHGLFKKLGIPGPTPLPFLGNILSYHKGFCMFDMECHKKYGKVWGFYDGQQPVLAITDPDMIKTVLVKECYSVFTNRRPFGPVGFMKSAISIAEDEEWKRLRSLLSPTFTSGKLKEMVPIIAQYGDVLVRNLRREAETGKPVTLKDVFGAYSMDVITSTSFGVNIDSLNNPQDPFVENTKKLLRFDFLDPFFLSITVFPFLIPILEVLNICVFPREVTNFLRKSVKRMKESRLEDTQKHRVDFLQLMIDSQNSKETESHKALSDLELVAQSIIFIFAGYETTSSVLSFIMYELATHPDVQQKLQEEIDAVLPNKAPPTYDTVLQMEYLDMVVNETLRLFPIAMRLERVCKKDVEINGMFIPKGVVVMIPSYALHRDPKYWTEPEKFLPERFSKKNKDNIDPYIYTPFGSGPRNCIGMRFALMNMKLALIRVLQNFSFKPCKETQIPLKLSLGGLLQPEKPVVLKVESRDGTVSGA

[9] = molecular target: T4, rCYP1A2 (Homo sapiens, UniProt P05177); experiment: Metabolic stability / reaction phenotyping with recombinant human CYP1A2; settings: 1 µM test compound; 100 pmol/mL; 30 min
T4 sequence (P05177 1-516): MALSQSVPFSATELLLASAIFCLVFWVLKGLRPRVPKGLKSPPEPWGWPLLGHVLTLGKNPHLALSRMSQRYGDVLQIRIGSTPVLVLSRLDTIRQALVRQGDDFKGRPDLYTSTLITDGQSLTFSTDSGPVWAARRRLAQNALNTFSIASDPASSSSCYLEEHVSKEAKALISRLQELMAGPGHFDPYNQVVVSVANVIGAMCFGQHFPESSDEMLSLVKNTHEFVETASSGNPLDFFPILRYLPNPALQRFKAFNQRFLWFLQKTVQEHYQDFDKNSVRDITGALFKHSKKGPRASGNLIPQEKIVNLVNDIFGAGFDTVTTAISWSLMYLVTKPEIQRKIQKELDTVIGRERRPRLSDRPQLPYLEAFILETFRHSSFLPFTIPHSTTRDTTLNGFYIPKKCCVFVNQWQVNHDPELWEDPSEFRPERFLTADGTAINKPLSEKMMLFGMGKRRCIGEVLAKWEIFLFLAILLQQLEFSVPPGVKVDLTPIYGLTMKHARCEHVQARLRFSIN

[10] = molecular target: rCYP2D6 (Homo sapiens, UniProt P10635); experiment: Metabolic stability / reaction phenotyping with recombinant human CYP2D6; settings: 1 µM test compound; 100 pmol/mL; 30 min
Sequence of rCYP2D6 (P10635 whole entry): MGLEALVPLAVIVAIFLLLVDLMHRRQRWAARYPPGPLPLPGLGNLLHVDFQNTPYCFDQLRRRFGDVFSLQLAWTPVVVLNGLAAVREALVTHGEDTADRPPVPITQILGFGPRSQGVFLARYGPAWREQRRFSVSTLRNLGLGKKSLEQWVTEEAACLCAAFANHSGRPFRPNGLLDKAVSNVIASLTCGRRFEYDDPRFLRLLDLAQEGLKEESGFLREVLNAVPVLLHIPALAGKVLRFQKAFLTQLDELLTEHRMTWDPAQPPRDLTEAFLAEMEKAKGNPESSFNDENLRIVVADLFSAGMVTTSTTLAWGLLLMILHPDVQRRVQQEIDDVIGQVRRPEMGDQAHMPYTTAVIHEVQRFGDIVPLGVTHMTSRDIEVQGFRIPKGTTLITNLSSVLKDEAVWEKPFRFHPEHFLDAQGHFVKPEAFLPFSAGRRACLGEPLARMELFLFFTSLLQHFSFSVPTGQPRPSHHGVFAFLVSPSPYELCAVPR

[11] = molecular target: rCYP2C19 (Homo sapiens, UniProt P33261); experiment: Metabolic stability / reaction phenotyping with recombinant human CYP2C19; settings: 1 µM test compound; 100 pmol/mL; 30 min
Sequence of rCYP2C19 (P33261 whole entry): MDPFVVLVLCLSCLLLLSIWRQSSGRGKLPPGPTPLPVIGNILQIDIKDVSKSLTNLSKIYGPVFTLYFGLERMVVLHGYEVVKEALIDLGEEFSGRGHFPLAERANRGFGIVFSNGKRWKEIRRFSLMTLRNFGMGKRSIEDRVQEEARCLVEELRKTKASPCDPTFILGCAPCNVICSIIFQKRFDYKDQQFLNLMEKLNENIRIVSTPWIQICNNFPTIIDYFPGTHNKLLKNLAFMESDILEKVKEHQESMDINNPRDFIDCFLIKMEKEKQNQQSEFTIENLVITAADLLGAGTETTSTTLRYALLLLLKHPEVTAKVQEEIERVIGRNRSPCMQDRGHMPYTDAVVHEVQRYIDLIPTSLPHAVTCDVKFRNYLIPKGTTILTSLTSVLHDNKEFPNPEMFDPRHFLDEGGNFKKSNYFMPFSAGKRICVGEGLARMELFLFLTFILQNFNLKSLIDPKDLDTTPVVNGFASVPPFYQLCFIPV

[12] = human, recombinant human CYP2C8, 1 µM, pH 7.4
[13] = human, recombinant human CYP2C9, 1 µM, pH 7.4

Sequence of rCYP2C9 (P11712 whole entry): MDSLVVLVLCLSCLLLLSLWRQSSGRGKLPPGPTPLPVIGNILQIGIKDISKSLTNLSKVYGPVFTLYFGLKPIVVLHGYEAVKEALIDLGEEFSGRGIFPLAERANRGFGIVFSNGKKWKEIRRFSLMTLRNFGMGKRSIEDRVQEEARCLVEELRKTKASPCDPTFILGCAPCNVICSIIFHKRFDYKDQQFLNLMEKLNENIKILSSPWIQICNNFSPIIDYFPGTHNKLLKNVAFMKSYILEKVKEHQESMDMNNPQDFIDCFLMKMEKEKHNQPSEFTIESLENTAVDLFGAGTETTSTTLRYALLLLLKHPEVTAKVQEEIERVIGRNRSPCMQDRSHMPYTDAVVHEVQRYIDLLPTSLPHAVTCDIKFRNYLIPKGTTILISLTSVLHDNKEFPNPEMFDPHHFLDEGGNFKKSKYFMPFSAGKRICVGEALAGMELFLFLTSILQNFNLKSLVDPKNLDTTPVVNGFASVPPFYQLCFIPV

CN(C)CCCOc1nn(Cc2ccccc2)c2ccccc12 [Benzydamine, reference compound]
% Metabolized at 30 min Incubation with Human Liver Fractions/Enzymes HLM [1]: 16.45%

O=C(O)Cc1ccccc1Nc1c(Cl)cccc1Cl [Diclofenac, diclofenac, reference compound]
% Metabolized at 30 min Incubation with Human Liver Fractions/Enzymes rCYP2C9 [2]: 98.61%

CNC(=O)O/N=C/C(C)(C)S(C)(=O)=O [Aldicarb sulfone, aldicarb sulfone]
% Metabolized at 30 min Incubation with Human Liver Fractions/Enzymes Cytosol [3]: 0.00% | inhibition at 2 µM [4]: 1.83% | inhibition at 10 µM [4]: < 0% | inhibition at 2 µM [5]: < 0% | inhibition at 10 µM [5]: < 0% | % Metabolized at 30 min Incubation with Human Liver Fractions/Enzymes HLM [1]: 1.05% | inhibition at 2 µM [6]: 2.77% | inhibition at 10 µM [6]: 4.1%

CN(Cc1cnc2nc(N)nc(N)c2n1)c1ccc(C(=O)N[C@@H](CCC(=O)O)C(=O)O)cc1 [Methotrexate, reference compound]
% Metabolized at 30 min Incubation with Human Liver Fractions/Enzymes Cytosol [3]: 3.18%

CC(=O)O[C@H]1C(=O)[C@@]2(C)[C@H]([C@H](OC(=O)c3ccccc3)[C@]3(O)C[C@H](OC(=O)[C@H](O)[C@@H](NC(=O)c4ccccc4)c4ccccc4)C(C)=C1C3(C)C)[C@]1(OC(C)=O)CO[C@@H]1C[C@@H]2O [Paclitaxel, paclitaxel]
% Metabolized at 30 min Incubation with Human Liver Fractions/Enzymes rCYP2C8 [7]: 11.21%

CNC(=O)O/N=C/C(C)(C)SC [Aldicarb, aldicarb]
% Metabolized at 30 min Incubation with Human Liver Fractions/Enzymes Cytosol [3]: 21.08% | % Metabolized at 30 min Incubation with Human Liver Fractions/Enzymes rCYP3A4 [8]: 0.00% | inhibition at 2 µM [4]: < 0% | inhibition at 10 µM [4]: < 0% | inhibition at 2 µM [5]: < 0% | inhibition at 10 µM [5]: < 0% | % Metabolized at 30 min Incubation with Human Liver Fractions/Enzymes HLM [1]: 13.41% | inhibition at 2 µM [6]: 2.63% | inhibition at 10 µM [6]: < 0% | % Metabolized at 30 min Incubation with Human Liver Fractions/Enzymes rCYP1A2 [9]: 0.00% | % Metabolized at 30 min Incubation with Human Liver Fractions/Enzymes rCYP2C8 [7]: 13.26% | % Contribution of CYP Enzymes (fmCYP) in Metabolism, CYP2C8 [7, 12]: 56.91% | Predicted Microsomal Clint, CYP2C8 [7, 12]: 3.035 µL/min/mg Protein | rCYP Clint, CYP2C8 [7, 12]: 0.047 µL/min/pmol | % Metabolized at 30 min Incubation with Human Liver Fractions/Enzymes rCYP2C9 [2]: 0.00% | % Contribution of CYP Enzymes (fmCYP) in Metabolism, CYP2C9 [2, 13]: 43.09% | Predicted Microsomal Clint, CYP2C9 [2, 13]: 2.298 µL/min/mg Protein | rCYP Clint, CYP2C9 [2, 13]: 0.024 µL/min/pmol | % Metabolized at 30 min Incubation with Human Liver Fractions/Enzymes rCYP2D6 [10]: 0.00% | % Metabolized at 30 min Incubation with Human Liver Fractions/Enzymes rCYP2C19 [11]: 6.93%

CCOc1ccc(NC(C)=O)cc1 [Phenacetin, phenacetin]
% Metabolized at 30 min Incubation with Human Liver Fractions/Enzymes rCYP1A2 [9]: 91.43%
